Results: patent US10925971B2, “Methods of treating PRLR positive breast cancer” (Regeneron Pharmaceuticals, Inc., priority 2016, dated 2021)
Entries after “also recorded” stand apart in the source; their conditions may differ.

How the values were obtained:
[1] = test system: T47D cells; test: In vitro cell viability (cell kill) assay, CCK8; format: cell-based, human; conditions: T47D, Table 19
Experimental: (§1) Next, the ability of anti-PRLR-DM1 antibody-drug conjugates (i.e., anti-PRLR antibodies conjugated to DM1 via a non-cleavable linker [SMCC]) to reduce cell viability was determined using in vitro cell based assays. Cells were seeded in PDL-coated 96 well plates at 1500 to 10000 cells per well in complete growth media and allowed to grow overnight. For cell viability curves, ADCs or free DM1 (as the methyl disulfide derivative DM1-SMe) were added to the cells at final concentrations ranging from 500 nM to 5 pM and incubated for 3 days. The 293, PC3 and T47D cells were incubated with CCK8 (Dojindo, Rockville, Md.) for the final 1-3 hours and the absorbance at 450 nm (OD450) was determined on a Flexstation3 (Molecular Devices, Sunnyvale, Calif.). MCF7 cells were treated with Hoechst 33342 nuclear stain while being fixed with 4% formaldehyde. Images were acquired on the ImageXpress micro XL (Molecular Devices, Sunnyvale, Calif.) and nuclear counts were determined via Columbus image analysis software (Perkin Elmer, Shelton, Conn.). Background OD450 values (PC3, 293, and T47D) or nuclear counts (MCF7) from digitonin (40 nM) treated cells was subtracted from all wells and viability was expressed as a percentage of the untreated controls. IC50 values were determined from a four-parameter logistic equation over a 10-point response curve (GraphPad Prism).

[2] = test system: T47D#11 tumors; format: in vivo, CB17 SCID mice; conditions: mouse, in vivo, 0.2 mg/kg
Excerpt: (§2) Briefly, 20×10^6 MCF7/PRLR cells (ATCC HTB-22 transfected with full length hPRLR as previously described) were implanted subcutaneously into the left mammary fat pad of female NCr nude mice. In other studies, 10×10^6 PC3/PRLR (ATCC CRL-1435 transfected with full length hPRLR as previously described) were implanted subcutaneously into the left flank of male SCID mice. Additionally, 10×10^6 parental T47D (ATCC HTB-133) or 7.5×10^10 T47D #11 cells (ATCC HTB-133 serially passaged in vivo as described below) were subcutaneously implanted into the left flank of female CB17 SCID mice. All mice were obtained from Taconic (Hudson, N.Y.). Each bolus of cells was supplemented with a 90-day estrogen release pellet (1.7 mg/pellet; Innovative Research America, Sarasota Fla.). […] Control reagents included PBS vehicle, free methyl-disulfide DM1 (DM1-SMe) and isotype Control 1-DM1.
(§3) In multi-dose studies, mice were dosed once a week for a total of three weeks with tumor volumes and body weights being monitored twice weekly throughout the study. Test ADCs were dosed at 5 and/or 15 mg/kg in the multi-dose studies. In single-dose studies, mice received a single dose of test ADC, and tumor volumes and body weights were monitored twice weekly throughout the study. Test ADCs were dosed at 1, 2.5, 5, and 15 mg/kg in the single-dose studies. Average tumor size as well as tumor growth inhibition relative to the vehicle treated group were calculated for each group. Tumors were measured with calipers twice a week until the average size of the vehicle group reached 1000 mm^3. Tumor size was calculated using the formula (length×width^2)/2. Tumor growth inhibition was calculated according to the following formula: (1−((Tfinal−Tinitial)/(Cfinal−Cinitial)))*100, where T (treated group) and C (control group) represent the mean tumor mass on the day the vehicle group reached 1000 mm^3. […] Results are summarized in Tables 21-25 (multi-dose) and Table 26 (single dose). (NT=not tested in the particular experiment shown).

[3] = test system: PC3 cells; test: In vitro cell viability (cell kill) assay, CCK8; format: cell-based, human; conditions: Table 18
Procedure, shortened: (§4)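 Readout: CCK8 absorbance at 450 nm (293, PC3) or Hoechst-stained nuclear counts after formaldehyde fixation (MCF7). hPRLR-expressing lines, seeded overnight, got DM1 ADCs (non-cleavable SMCC linker) or DM1-SMe, 500 nM–5 pM, 3 days. Viability as % untreated after digitonin background; IC50 by four-parameter logistic.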

[4] = test system: PC3/hPRLR cells; test: In vitro cell viability (cell kill) assay, CCK8; format: cell-based, human; conditions: Table 18
Procedure, shortened: as §4

[5] = test system: HEK293 (293) cells; test: In vitro cell viability (cell kill) assay, CCK8; format: cell-based, human; conditions: 293; Table 19
Procedure, shortened: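 Anti-PRLR–DM1 ADCs (non-cleavable SMCC linker) or free DM1-SMe, 500 nM to 5 pM for 3 days on parental or hPRLR-overexpressing lines. HEK293: CCK8 OD450; MCF7: Hoechst nuclear counts by imaging.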

[6] = test system: MCF7/hPRLR (MCF7/PRLR) cells; test: In vitro cell viability (cell kill) assay, nuclear counts; format: cell-based, human
Excerpt: (§5) PRLR-overexpressing cells, including HEK293, PC3, MCF7 and NCI-N87, were generated to assess the ability of anti-PRLR conjugated antibodies to reduce cell viability. For comparative purposes, PC3 and T47D cells with overexpressed ErbB2 were also generated, as well as an MCF7 cell line over-expressing both hPRLR and hErbB2. Briefly, Lipofectamine® 2000-mediated transfection methodology was utilized to generate HEK293 cells expressing human PRLR (HEK293/hPRLR) or human ErbB2 (HEK293/hErbB2). Lipofectamine LTX with Plus Reagent was used to generate PC3 cells expressing human PRLR (PC3/hPRLR) or human ErbB2 (PC3/hErbB2). Lentiviral-mediated transduction was utilized to generate MCF7 cells expressing human PRLR (MCF7/hPRLR), NCI-N87 cells expressing human PRLR (NCI-N87/hPRLR), T47D cells over-expressing human ErbB2 (T47D/hErbB2), and MCF7 cells expressing both human PRLR and human ErbB2 (MCF7/hPRLR/hErbB2). All lines were selected for at least two weeks in complete growth media plus appropriate selection reagents. Stably expressing populations were enriched for PRLR expression via FACS using the anti PRLR antibody Control I.
as §1

[7] = test system: MCF7 (MCF7/ATCC) cells; test: as above; format: cell-based, human; conditions: MCF7/ATCC
Excerpt: as §5, §1

[8] = test system: MCF7/PRLR tumors; test: MCF7/PRLR breast cancer xenograft, tumor size and tumor growth inhibition; format: in vivo, NCr nude mice; conditions: NCr Nude mice, multi-dose 0.2 mg/kg
Excerpt: as §2, §3

[9] = test system: PC3/PRLR tumors; test: PC3/PRLR xenograft, tumor size and tumor growth inhibition; format: in vivo, SCID mice; conditions: SCID mice, multi-dose 0.2 mg/kg
Excerpt: as §2, §3

[10] = test system: PRLR expression in T47DvII cells; test: PRLR expression after continuous culture with fulvestrant (flow cytometry or western blotting); format: cell-based, human; conditions: continuous culture with 10 or 100 nM, data not shown
[11] = test system: T47Dv11 tumors; test: T47Dv11 breast tumor xenograft, single agent and combination with fulvestrant; format: in vivo, C.B.-17 SCID mice; conditions: for Average Tumor Growth Inhibition (%) / Final Tumor Volume (mean ± SD): T47DvII tumors in SCID mice, Day 70
Experimental: The T47Dv11 model was used to assess the activity of H1H6958N2-DM1 in a model with significant levels of endogenous PRLR. […] Initially, 10×10^6 parental T47D cells were implanted subcutaneously (SC) into the left flank of female C.B.-17 SCID mice (Taconic, Hudson N.Y.). Tumors were supplemented with a 90-day release 1.7 mg estrogen pellet (Innovative Research America). Where T47D tumors were observed, they were excised and cut into 3 mm fragments and subsequently implanted into the left flank of separate female C.B.-17 SCID mice. Subsequent passaging was performed until a large tumor was disaggregated into a single cell suspension. The cells (named T47Dv11) from this tumor were then cultured in vitro and expanded. […] For efficacy studies, mice were implanted with 7.5×10^6 T47Dv11 cells into the left flank of female C.B.-17 SCID mice supplemented with a 90-day release 0.72 mg/pellet estrogen pellet. For MCF7 and MCF7/PRLR tumor xenografts, 2×10^7 MCF7/PRLR cells were implanted SC into the left mammary fat pad of female NCr nude mice (7-8 weeks old) supplemented with 90-day release 0.72 mg/pellet estrogen pellets. Tumors were measured with calipers twice a week for the duration of each study. Tumor volume was calculated using the formula TV=(length×width^2)/2.
After T47Dv11 tumors reached an average volume of ˜150-200 mm^3 (14-16 days post implantation), mice were randomized into treatment groups (n=8-9 mice/group) and received a single dose or three once-weekly doses of H1H6958N2-DM1, control ADC, or vehicle control, administered systemically by intravenous tail-vein injection. […] Tumor size and body weight were measured in vivo twice per week throughout the duration of the study.
Next, the combination of H1H6958N2-DM1 with the SERD fulvestrant was tested in the T47Dv11 xenograft model. Here, the activity of either agent at partially effective doses was compared against the activity of the agents in combination. First, a dose titration study of weekly administration of fulvestrant was performed in order to establish its single agent activity (FIG. 4).
For the subcutaneous tumors, average tumor size as well as tumor growth inhibition relative to the Vehicle treated group were calculated for each group. Tumors were measured with calipers twice a week until the average size of the vehicle group reached 1200 mm^3. Tumor size was calculated using the formula (length×width^2)/2. For all studies, tumor growth inhibition was calculated according to the following formula: (1−((Tfinal−Tinitial)/(Cfinal−Cinitial)))*100, where T (treated group) and C (control group) represent the mean tumor mass on the day the vehicle group reached 1000 mm^3.

[12] = test system: TM00107 PDX tumors; test: TM00107 patient derived xenograft (PDX) breast cancer model, tumor volume; format: in vivo, NOD SCID gamma (NSG) mice; conditions: intravenous every 4 days, 4 doses
Experimental: Efficacy of H1H6958N2-DM1 was also assessed in a patient derived xenograft (PDX) model of breast cancer that may better represent the response in patients. NOD SCID gamma (NSG) mice bearing tumor fragments of the TM00107 PDX breast cancer tumor were sourced from The Jackson Laboratories. The TM00107 PDX model was derived from an ER+/−/PR−/HER2− metastatic breast adenocarcinoma. PRLR expression was confirmed by microarray analysis and immunohistochemistry on tumor sample slides provided by The Jackson Laboratory (data not shown). When tumors were an average volume of ˜400-600 mm^3 (21 days post implantation), mice were randomized into treatment groups (n=7 mice/group) and were administered H1H6958N2-DM1, control ADC, or vehicle control by intravenous injection once weekly for a total of 4 weeks. A separate treatment group was administered paclitaxel by intravenous injection every 4 days for a total of 4 doses.

[13] = MCF7/PRLR tumors TRIAL #1, Day 52
[14] = MCF7/PRLR tumors TRIAL #2, Day 63
[15] = PC3/PRLR tumors TRIAL #1, Day 63
[16] = PC3/PRLR tumors TRIAL #2, Day 55

## COc1cc2cc(c1Cl)N(C)C(=O)C[C@H](OC(=O)[C@H](C)N(C)C(=O)CCSSC)[C@]1(C)O[C@H]1[C@H](C)[C@@H]1C[C@@](O)(NC(=O)O1)[C@H](OC)/C=C/C=C(\C)C2 [DM1-SMe, reference compound]
[1]
  % Kill: 100%
[1]; read-out: IC50
  IC50: 1.5 nM
[2]
  Average Tumor Growth Inhibition (%): −19%
  Final Tumor size mm^3 (mean ± SEM): 1433 ± 23 mm^3
[3]
  % Kill: 90%
  IC50: 0.5 nM
[4]
  % Kill: 70%
  IC50: 1 nM
[5]
  % Kill: 95%
  IC50: 1.2 nM
[6]; Table 18
  % Kill: 86%
  IC50: 1.9 nM
[6]; Table 20
  % Kill: 80%
  IC50: 0.8 nM
[7]; Table 18
  % Kill: 80%
  IC50: 3 nM
[7]; Table 20
  % Kill: 80%
  IC50: 1.3 nM
[8]; [13]
  Average Tumor Growth Inhibition (%): 57%
  Final Tumor size mm^3 (mean ± SEM): 625 ± 141 mm^3
[8]; [14]
  Average Tumor Growth Inhibition (%): −33%
  Final Tumor size mm^3 (mean ± SEM): 1080 ± 451 mm^3
[9]; [15]
  Average Tumor Growth Inhibition (%): −5%
  Final Tumor size mm^3 (mean ± SEM): 1361 ± 120 mm^3
[9]; [16]
  Average Tumor Growth Inhibition (%): 7%
  Final Tumor size mm^3 (mean ± SEM): 1147 ± 59 mm^3

## C[C@]12CC[C@@H]3c4ccc(O)cc4C[C@@H](CCCCCCCCC[S+]([O-])CCCC(F)(F)C(F)(F)F)[C@H]3[C@@H]1CC[C@@H]2O (stereo partly drawn) [fulvestrant, reference compound]
[10]
  PRLR expression: did not decrease PRLR expression; also recorded: did not significantly reduce PRLR expression
[11]; 150 mg/kg
  Average Tumor Growth Inhibition (%): 52%
  Final Tumor Volume (mean ± SD): 660 ± 205 mm^3
[11]; 250 mg/kg
  Average Tumor Growth Inhibition (%): 74%
  Final Tumor Volume (mean ± SD): 433 ± 189 mm^3
[11]; combination study, individual treatment 150 or 250 mg/kg subcutaneously once weekly
  anti-tumor activity: Significant anti-tumor activity

## CC(=O)O[C@H]1C(=O)[C@@]2(C)[C@H]([C@H](OC(=O)c3ccccc3)[C@]3(O)C[C@H](OC(=O)[C@H](O)[C@@H](NC(=O)c4ccccc4)c4ccccc4)C(C)=C1C3(C)C)[C@]1(OC(C)=O)CO[C@@H]1C[C@@H]2O [paclitaxel, reference compound]
[12]
  tumor growth: did not have an effect on tumor growth
